Results reported in patent US20040110253A1, “Method for identifying MHC-presented peptide epitopes for T cells” (priority 2002, published 2004).

What was measured:
T cell 3DT-52.5 = assay: IL-2 production by T cell 3DT-52.5 in response to LKD8 cells plus synthetic peptide; format: cell-based, mouse; details: synthetic peptide 100 ug/ml, D^d expressing Tap deficient cell line, twenty four hours
From the text: FIG. 14B is a graph showing IL-2 produced by T cell […] in response to (1) P815 plus a bound unknown self-peptide and 2) LKD8, alone, or in the presence of the library derived peptide, TGPTRWCRL (SEQ ID NO:50), or a peptide derived from the spin protein, AGATRWCRL (SEQ ID NO:51).
DNA from a number of these clones was sequenced through the region encoding the peptide to determine the peptide sequence. Only one sequence was found, a 9mer, TGPTRWCRL (represented by SEQ ID NO:50; the underlined amino acids are in the positions varied in the library). […] A search of the mouse genome for proteins that contained peptides similar to the library peptide yielded a very similar sequence (AGATRWCRL; SEQ ID NO:51) intheprotein, spin(GenBank Accession No. BC011467). The library peptide and the spin peptide were synthesized and tested with a D^d expressing, Tap deficient, cell line for recognition by the original T cell (FIG. 14B). […] In the case of LKD8 the cell line was tested alone or in the presence of 100 ug/ml of the library derived peptide, TGPTRWCRL (SEQ ID NO:50), or a peptide derived from the spin protein, AGATRWCRL (SEQ ID NO:51). After twenty four hours the culture supernatants were assayed for IL-2. Without an added peptide, the D^d on this cell line was not recognized because the Tap deficiency prevents loading of endogenous peptides.

YAe-62 hybridoma = assay: IL-2 production by YAe-62 T cell hybridoma in response to IA^b-peptide presenting APCs; format: cell-based, mouse; details: for IL-2 Production (units/ml): YAe-62 hybridoma, infected SF9 cells expressing mouse ICAM and B7.1 as APCs
From the text: The mouse T cell hybridoma, referred to as YAe-62, was chosen as a representative of broadly reactive T cells present in mice carrying transgenes and gene knockouts that lead to expression of MHC Class II that are almost completely occupied by a single peptide (Ignatowicz et al., 1996, Cell 84:521-529). The T cell was produced by immunization with p3K bound to IA^b in mice that express IA^b covalently linked to Eα, a dominant IA^b binding peptide derived from the MHC Class II IEα chain. YAe-62 responds to IA^b-p3K, but not to APCs lacking MHC Class II or to the IA^b-pEα APCs from the mouse from which it was derived. YAe-62 is also reactive against many cell types bearing IA^b in the absence of p3K. It also responds to APCs from a variety of mice carrying other alleles of IA. The inventors have postulated that this T cell responds mainly to the evolutionarily conserved regions of the IA molecule with less dependence on the peptide than seen with conventional T cells (Marrack et al., 2001, J. Immunol. 167:617-621). […] From the X-ray crystal structure of IA^b (Liu et al., 2002, supra) enough was known about how peptides bind to this MHC molecule to design a strategy in which the major MHC anchor amino acids of the peptide could be held constant and only five surface exposed amino acids need be varied in the library (FIG. 8).
(§1) At the time of the final enrichment, single infected cells binding each of αβTCRs were sorted into individual wells of 96 well culture plates containing fresh SF9 cells in order to prepare clonal viral stocks. These stocks were used to infect fresh SF9 cells which were reanalyzed for binding to the appropriate αβTCR as described above. […] The majority of PCR fragments yielded a single unambiguous peptide sequence. These viruses were used to infect SF9 cells that expressed mouse ICAM and B7.1. The infected cells were used as APCs for either the B3K-06 or YAe-62 hybridoma with IL-2 production being a measure of IA^b-peptide recognition. Viruses expressing IA^b-peptide combinations that neither bound to the αβTCR nor stimulated the T cell hybridomas were used as negative controls and virus producing IA^b-p3K was used as the positive control. Results with a few representative virus clones are shown in FIG. 10A and 10B, and a summary of all of the results are shown in Table 1.

YAe-62 TCR = assay: Binding of fluorescent soluble YAe-62 αβTCR to SF9 cells displaying IA^b-peptide (flow cytometry); set-up: species or system mouse; details: for YAe-62 TCR Binding (% of p3K): IA^b-peptide displayed on baculovirus-infected SF9 cells, fluorescent soluble αβTCR
Experimental: (§2) Next fluorescent, soluble αβTCR reagents were prepared for use in flow cytometry to detect insect cells displaying the appropriate MHCII/peptide combination. Fluorescent multivalent versions of the soluble αβTCR's of B3K-06 and YAe-62 bound to insect cells displaying the IA^b-p3K, but not a control MHCII-peptide combination (data not shown).
(§3) Insect cells displaying IA^b-p3K bound the αβTCR reagents very heterogeneously, probably due to heterogeneous expression of IA^b-p3K due to variations in the multiplicity of infection and the lack of synchrony in viral infection and expression. […] In this case, there was a direct correlation between the amount of surface IA^b-p3K expressed by an individual insect cell and the amount of αβTCR bound with cells bearing a particular level of IA^b-p3K binding the αβTCRs uniformly (data not shown). Therefore, comparing the two types of staining gave a useful tool to evaluate the relation between peptide sequence and the strength of αβTCR binding (see below).
(§4) A large number of SF9 insect cells were infected at an MOI of about one with baculovirus carrying the IA^b peptide library. After 3-4 days the cells were analyzed with fluorescent B3K-06 or YAe-62 soluble αβTCR, as described above. Fluorescent cells were sorted and cultured with fresh uninfected SF9 cells to create new infected cells for analysis and an enriched viral stock. This process was repeated 3 to 4 times. In each case, when no clear fluorescent population was apparent, the brightest 1% of the infected cells was sorted. In later rounds, the majority of the cells in a clearly distinguishable fluorescent population were sorted. Infected cells binding the B3K-06 αβTCR were apparent only after two rounds of enrichment but eventually yielded a population with uniform binding (data not shown). Infected cells that bound the YAe-62 αβTCR were detectable even with the initial library of viruses and enriched rapidly to yield a population with more heterogeneous levels of binding to the receptor (data not shown).
as §1

B3K-06 TCR = assay: Binding of fluorescent soluble B3K-06 αβTCR to SF9 cells displaying IA^b-peptide (flow cytometry); set-up: species or system mouse; details: IA^b-peptide displayed on baculovirus-infected SF9 cells, fluorescent soluble αβTCR
Experimental: as §2, §3, §4, §1

B3K-06 hybridoma = assay: IL-2 production by B3K-06 T cell hybridoma in response to IA^b-peptide presenting APCs; format: cell-based, mouse; details: B3K-06 hybridoma; infected SF9 cells expressing mouse ICAM and B7.1 as APCs
From the text: The hybridoma, B3K-06 was produced from wild-type C57BL/6 mice immunized conventionally with the peptide (Rees et al., 1999, supra). […] Also, as is commonly seen with conventional T cells, the interaction of the αβ TcR of B3K-06 with IA^b-p3K is very sensitive to changes in any of the peptide amino acids exposed on the surface of the IA^b-p3K complex. Mutation of positions Q2, K3, K5, N7 or K8 to alanine virtually eliminates recognition of p3K by B3K-06 (Liu et al., 2002, supra and additional data not shown).
as §1

Substance | IL-2 Production (units/ml) (YAe-62 hybridoma) | YAe-62 TCR Binding (% of p3K) (YAe-62 TCR) | also measured
AGATRWCRL (listed as Mus musculus) [peptide derived from the spin protein] | – | – | restoration of the ability of LKD8 cells to stimulate the T cells (IL-2) (T cell 3DT-52.5): restored the ability of the cells to stimulate the T cells
F E A A L A R A V P A V (FEAALARAVPAV; synthetic peptide motif) [SEQ ID NO:33] | <3 | 23.4 % of p3K | –
F E A E K A K A L T A V (FEAEKAKALTAV; synthetic peptide motif) [SEQ ID NO:28] | 9 | 49.6 % of p3K | –
F E A E R A R A A S A V (FEAERARAASAV; synthetic peptide motif) [SEQ ID NO:36] | <3 | 2.3 % of p3K | –
F E A F M A R A K A A V (FEAFMARAKAAV; synthetic peptide motif) [SEQ ID NO:21] | 1256 | 107.5 % of p3K | –
F E A F P A K A L R A V (FEAFPAKALRAV; synthetic peptide motif) [SEQ ID NO:30] | 47 | 38.5 % of p3K | –
F E A H T A L A P R A V (FEAHTALAPRAV) [SEQ ID NO:23] | 6 | 80.4 % of p3K | –
F E A L P A R A A A A V (FEALPARAAAAV) [SEQ ID NO:22] | 681 | 70.4 % of p3K | difference in the amount of IL-2 production stimulated by the two peptides (YAe-62 hybridoma; SEQ ID NO:39 versus SEQ ID NO:40): 100 fold; binding of YAe-62 αβTCR to IA^b-peptide complex (in words) (YAe-62 TCR; insect cells displaying IA^b-peptide): nearly equally well
F E A L S A K A N T A V (FEALSAKANTAV; synthetic peptide motif) [SEQ ID NO:31] | <3 | 33.3 % of p3K | –
F E A L Y A K A L T A V (FEALYAKALTAV; synthetic peptide motif) [SEQ ID NO:19] | 1717 | 98.7 % of p3K | –
F E A P Y A Q A P H A V (FEAPYAQAPHAV; synthetic peptide motif) [SEQ ID NO:38] | <3 | 1.3 % of p3K | –
F E A Q G A L A N I A V (FEAQGALANIAV; synthetic peptide motif) [pEα, negative control, reference compound] | <3 | 0.3 % of p3K | response of YAe-62 to IA^b-peptide APCs (YAe-62 hybridoma; APCs bearing IA^b-peptide): not; B3K-06 TCR Binding (% of p3K) (B3K-06 TCR): 0.4 % of p3K; IL-2 Production (units/ml) (B3K-06 hybridoma): <3 units/ml
